This note sets out measurements from patent US20240209001A1, “HETEROCYCLIC DERIVATIVES AS JANUS KINASE INHIBITORS” (CHIESI FARMACEUTICI S.P. A., priority 2021, published 2024).

A value given as a limit tells only on which side of the number the result lay.

The target in test [1] is TYK2 (Homo sapiens (Human), UniProt P29597). Put plainly: Biochemical potency on Tyk2, TR-FRET LANCE Ultra kinase assay (compounds 1-92). As to conditions: ATP at Km, read-out: Tyk2 inhibitory activity (pIC50 class) (converted). As for the experimental part: (§1) Biochemical Potency on JAK1, JAK2, JAK3 and Tyk2 Assay Principle The objective of this study was to assess the capability of compounds to inhibit all 4 JAK isoforms activity in a cell-free environment. Assay for JAK 1, JAK 2, JAK 3 and TYK2 were performed by Time-resolved fluorescence resonance energy transfer (TR-FRET) technology. It consists in the interaction of two labelled binding partners detected by the energy transfer from an excited donor to an acceptor dye and measurement of light emission by the acceptor dye. LANCE Ultra kinase assay was used. In presence of JAK 1, JAK 2, JAK 3 and TYK2 kinases and ATP (corresponding to Km), the ULight peptide substrate (LANCE Ulight-JAK-1 ([…]) Peptide, Perkin Elmer, TRF0121) is phosphorylated. It is then captured by Eu-anti-phospho-substrate antibody (LANCE Eu-W1024 Anti-phosphotyrosine (PT66), Perkin Elmer, AD0069), which bring the Eu-chelate donor and ULight acceptor dyes into close proximity. Upon excitation at 320 nm, the Eu-chelate transfers its energy to the ULight dye, resulting in a fluorescent light emission at 665 nm. Compound Testing Serial dilutions of compounds in pure DMSO are prepared from 10 mM DMSO stock solutions. Compounds were tested in 384-well plate for 11 consecutive 5-fold dilutions starting from 20 μM highest concentration (20 μM-[…]). 200 nL of compound were transferred from mother plate to test plate by using Mosquito (TTP labtech). Assay was performed in 384-well Perkin Elmer test plate in 20 μL assay volume (kinase reaction) and 40 μL total volume (stopping reagent and antibody detection reagents). In 10 μL of substrate solution (peptide+ATP) 30/50/20/10 nM of peptide and 20/0.7/0.2/12 μM of ATP were added for JAK 1, JAK 2, JAK 3 and TYK2 respectively. 10 μL of enzyme solution was added to kinase reaction at these concentrations: 0.15/0.083/0.025/0.144 ng/μL of JAK 1, JAK 2, JAK 3 and TYK2 respectively. After shaking and 1.5 h of incubation at r.t., 20 μL of Stop (10 μL EDTA) and Detection mixture (10 μL Europium-anti-phospho antibody, final: 0.5 nM) were added. Reading was performed after 1 h of incubation on a EnVision 2104 reader (Perkin Elmer). Calculation of IC50 data, curves and QC analysis was performed by using Excel tool and GraphPadPrism software, v9. Briefly, individual concentration-effect curves are generated by plotting the logarithm of the tested concentration of tested compounds (X) vs. corresponding percent inhibition values (Y) using least squares (ordinary) fit. Best fit IC50 values are calculated using Log(inhibitor) vs. normalized response-Variable slope equation, where Y=100/(1+10^((Log IC50-X)*HillSlope)). QC criteria parameters (Z', S:B, R2, HillSlope) were checked for every IC50 curve. Calculation of IC50 data, curves and QC analysis were made using Excel tools and GraphPadPrism software. QC criteria parameters: Z'≥0.5, Hill Slope range 0.5 to 5, S:B>2.
Sequence of TYK2 (P29597 whole entry, canonical isoform): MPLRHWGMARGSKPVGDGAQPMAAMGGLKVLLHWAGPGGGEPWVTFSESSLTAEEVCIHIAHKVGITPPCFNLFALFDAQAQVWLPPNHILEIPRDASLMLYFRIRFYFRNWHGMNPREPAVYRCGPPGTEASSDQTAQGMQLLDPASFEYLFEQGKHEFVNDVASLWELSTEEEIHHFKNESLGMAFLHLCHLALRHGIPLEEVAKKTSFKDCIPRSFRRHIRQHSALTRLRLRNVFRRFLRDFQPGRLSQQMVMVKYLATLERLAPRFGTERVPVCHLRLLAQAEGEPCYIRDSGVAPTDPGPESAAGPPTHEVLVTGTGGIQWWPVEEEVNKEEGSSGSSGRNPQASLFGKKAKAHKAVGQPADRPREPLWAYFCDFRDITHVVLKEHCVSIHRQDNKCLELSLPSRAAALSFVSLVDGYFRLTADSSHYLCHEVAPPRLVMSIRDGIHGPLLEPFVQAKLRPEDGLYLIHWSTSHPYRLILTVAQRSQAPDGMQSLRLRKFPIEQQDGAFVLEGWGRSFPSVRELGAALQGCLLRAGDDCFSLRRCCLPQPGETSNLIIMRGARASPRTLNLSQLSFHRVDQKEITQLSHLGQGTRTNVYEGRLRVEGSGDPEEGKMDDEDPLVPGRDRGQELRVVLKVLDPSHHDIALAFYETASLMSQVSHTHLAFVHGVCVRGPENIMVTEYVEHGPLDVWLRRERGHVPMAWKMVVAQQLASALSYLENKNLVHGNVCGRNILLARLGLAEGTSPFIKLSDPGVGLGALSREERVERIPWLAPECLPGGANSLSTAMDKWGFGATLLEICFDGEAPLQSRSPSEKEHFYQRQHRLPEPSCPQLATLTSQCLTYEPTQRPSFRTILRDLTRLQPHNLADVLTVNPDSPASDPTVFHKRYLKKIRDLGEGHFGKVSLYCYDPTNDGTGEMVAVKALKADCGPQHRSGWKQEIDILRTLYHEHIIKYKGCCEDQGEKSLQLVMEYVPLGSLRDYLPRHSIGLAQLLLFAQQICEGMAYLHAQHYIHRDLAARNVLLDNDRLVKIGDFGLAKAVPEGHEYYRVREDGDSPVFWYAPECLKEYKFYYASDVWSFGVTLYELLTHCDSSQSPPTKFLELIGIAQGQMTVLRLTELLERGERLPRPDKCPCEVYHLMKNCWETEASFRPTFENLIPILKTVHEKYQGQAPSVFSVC

In test [2] the target is JAK 1 (Homo sapiens (Human), UniProt P23458). As to the kind of experiment: Biochemical potency on JAK1, TR-FRET LANCE Ultra kinase assay (compounds 1-92). As to conditions: ATP at Km, read-out: JAK1 inhibitory activity (pIC50 class) (converted). As for the experimental part: as §1
Sequence of JAK 1 (P23458 whole entry): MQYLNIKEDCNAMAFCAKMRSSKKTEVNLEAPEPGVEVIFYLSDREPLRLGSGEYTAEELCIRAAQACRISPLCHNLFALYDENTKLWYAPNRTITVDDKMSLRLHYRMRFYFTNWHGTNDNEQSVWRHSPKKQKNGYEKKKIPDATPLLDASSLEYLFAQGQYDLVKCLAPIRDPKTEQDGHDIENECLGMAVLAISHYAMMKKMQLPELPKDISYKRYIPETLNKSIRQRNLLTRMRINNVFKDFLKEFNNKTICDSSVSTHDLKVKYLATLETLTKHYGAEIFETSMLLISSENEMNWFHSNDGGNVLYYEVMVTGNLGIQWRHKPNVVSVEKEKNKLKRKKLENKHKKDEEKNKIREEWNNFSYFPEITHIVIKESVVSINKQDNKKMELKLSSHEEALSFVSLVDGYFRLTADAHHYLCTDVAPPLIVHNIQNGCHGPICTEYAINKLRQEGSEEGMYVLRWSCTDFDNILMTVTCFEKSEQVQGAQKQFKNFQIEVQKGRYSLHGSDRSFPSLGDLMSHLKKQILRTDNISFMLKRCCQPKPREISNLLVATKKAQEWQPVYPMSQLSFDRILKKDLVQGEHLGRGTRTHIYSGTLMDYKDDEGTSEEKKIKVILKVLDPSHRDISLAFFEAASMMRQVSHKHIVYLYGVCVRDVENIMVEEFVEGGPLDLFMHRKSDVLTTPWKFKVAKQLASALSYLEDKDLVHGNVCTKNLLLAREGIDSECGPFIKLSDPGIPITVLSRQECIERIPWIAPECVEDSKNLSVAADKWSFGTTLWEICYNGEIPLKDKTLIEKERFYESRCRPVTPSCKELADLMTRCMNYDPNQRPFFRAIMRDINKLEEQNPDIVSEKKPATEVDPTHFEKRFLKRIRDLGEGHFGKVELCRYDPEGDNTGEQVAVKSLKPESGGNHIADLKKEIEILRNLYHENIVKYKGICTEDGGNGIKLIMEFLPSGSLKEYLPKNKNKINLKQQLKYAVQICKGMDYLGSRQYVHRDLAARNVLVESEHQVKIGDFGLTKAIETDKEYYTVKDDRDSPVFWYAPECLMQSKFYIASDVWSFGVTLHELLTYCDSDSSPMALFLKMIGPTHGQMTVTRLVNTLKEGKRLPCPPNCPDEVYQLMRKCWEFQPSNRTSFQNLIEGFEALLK
In test [3] the target is JAK 2 (Homo sapiens (Human), UniProt O60674). As to the kind of experiment: Biochemical potency on JAK2, TR-FRET LANCE Ultra kinase assay (compounds 1-92). Particulars: ATP at Km, read-out: JAK2 inhibitory activity (pIC50 class) (converted). As for the experimental part:
as §1
(In TR-FRET formats the signal depends on donor and acceptor labels being close together.)

The target in test [4] is JAK 3 (Homo sapiens (Human), UniProt P52333). Put plainly: Biochemical potency on JAK3, TR-FRET LANCE Ultra kinase assay (compounds 1-92). As to conditions: ATP at Km, read-out: JAK3 inhibitory activity (pIC50 class) (converted). As for the experimental part: as §1
Sequence of JAK 3 (P52333 whole entry): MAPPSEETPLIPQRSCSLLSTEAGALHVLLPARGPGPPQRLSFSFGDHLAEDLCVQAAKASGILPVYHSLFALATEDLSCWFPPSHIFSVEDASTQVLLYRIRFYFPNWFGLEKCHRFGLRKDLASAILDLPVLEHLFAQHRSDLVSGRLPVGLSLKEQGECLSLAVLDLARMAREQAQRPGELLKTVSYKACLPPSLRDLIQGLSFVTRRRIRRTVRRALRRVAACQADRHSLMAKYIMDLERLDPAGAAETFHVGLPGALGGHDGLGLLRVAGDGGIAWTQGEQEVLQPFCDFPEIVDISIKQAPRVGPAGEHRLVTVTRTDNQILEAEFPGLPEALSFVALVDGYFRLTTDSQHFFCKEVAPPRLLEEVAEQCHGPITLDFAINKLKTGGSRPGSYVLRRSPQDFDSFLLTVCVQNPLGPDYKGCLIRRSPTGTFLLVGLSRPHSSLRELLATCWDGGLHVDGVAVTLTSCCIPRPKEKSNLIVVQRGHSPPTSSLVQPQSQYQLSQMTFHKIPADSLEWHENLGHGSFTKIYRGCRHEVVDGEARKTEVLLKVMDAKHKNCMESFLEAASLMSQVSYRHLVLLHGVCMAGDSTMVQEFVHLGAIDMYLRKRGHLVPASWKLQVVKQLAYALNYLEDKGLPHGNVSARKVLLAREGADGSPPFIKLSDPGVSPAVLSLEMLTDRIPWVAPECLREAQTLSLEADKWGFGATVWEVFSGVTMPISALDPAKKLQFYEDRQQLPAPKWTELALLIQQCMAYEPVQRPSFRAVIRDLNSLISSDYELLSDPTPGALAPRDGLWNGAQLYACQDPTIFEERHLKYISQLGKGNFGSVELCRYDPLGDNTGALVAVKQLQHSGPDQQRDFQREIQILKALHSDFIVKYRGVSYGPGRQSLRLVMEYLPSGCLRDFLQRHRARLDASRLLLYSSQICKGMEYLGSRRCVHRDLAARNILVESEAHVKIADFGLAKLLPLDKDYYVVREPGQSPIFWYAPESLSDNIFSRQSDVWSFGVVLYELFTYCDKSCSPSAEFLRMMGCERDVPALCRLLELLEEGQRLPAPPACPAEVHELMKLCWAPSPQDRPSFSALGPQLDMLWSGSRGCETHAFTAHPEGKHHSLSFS

Sequence of JAK 2 (O60674 whole entry): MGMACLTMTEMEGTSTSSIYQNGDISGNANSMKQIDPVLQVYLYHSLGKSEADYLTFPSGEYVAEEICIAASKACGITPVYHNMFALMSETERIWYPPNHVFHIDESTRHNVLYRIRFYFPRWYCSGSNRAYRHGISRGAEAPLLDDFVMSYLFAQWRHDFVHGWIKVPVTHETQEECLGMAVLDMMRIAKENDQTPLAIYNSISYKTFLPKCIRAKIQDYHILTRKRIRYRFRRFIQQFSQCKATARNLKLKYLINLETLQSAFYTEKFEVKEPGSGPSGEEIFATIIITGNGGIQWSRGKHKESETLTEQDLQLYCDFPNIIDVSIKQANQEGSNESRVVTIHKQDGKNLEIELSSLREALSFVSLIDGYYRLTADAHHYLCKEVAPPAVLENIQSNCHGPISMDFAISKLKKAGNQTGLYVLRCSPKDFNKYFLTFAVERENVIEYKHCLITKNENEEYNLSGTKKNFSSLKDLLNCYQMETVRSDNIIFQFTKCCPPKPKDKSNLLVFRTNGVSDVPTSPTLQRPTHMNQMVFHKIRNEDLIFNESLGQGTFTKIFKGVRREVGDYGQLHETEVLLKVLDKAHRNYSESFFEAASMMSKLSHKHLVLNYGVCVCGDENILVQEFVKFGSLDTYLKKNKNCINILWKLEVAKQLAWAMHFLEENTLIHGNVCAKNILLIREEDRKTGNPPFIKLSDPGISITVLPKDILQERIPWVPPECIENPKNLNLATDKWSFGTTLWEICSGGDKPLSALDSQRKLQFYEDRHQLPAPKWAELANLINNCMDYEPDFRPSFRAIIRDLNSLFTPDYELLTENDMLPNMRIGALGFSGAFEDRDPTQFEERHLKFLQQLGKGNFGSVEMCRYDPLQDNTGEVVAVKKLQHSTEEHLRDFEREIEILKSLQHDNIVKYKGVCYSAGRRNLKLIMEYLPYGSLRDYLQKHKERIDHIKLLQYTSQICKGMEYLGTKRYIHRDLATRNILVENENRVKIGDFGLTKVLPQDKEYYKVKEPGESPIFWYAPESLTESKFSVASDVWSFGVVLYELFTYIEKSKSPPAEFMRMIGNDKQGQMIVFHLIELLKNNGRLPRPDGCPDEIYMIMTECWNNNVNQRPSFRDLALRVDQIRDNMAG

`COc1cc(NC(=O)c2ccccc2)cnc1-n1nc(C)c2cnc(-c3cnn4cccnc34)cc21` [Example 48, N-(5-methoxy-6-(3-methyl-6-(pyrazolo[1,5-a]pyrimidin-3-yl)-1H-pyrazolo[4,3-c]pyridin-1-yl)pyridin-3-yl)benzamide]: the IC50 is 5.01 to 50.1 nM in test [1], 5.01 to 50.1 nM in test [2], ≤ 5.01 nM in test [3] and ≤ 5.01 nM in test [4].

For `CNc1cc(OC)c(-n2nc(C)c3cnc(-c4cnn5cccnc45)cc32)cn1` [Example 16, 4-methoxy-N-methyl-5-(3-methyl-6-(pyrazolo[1,5-a]pyrimidin-3-yl)-1H-pyrazolo[4,3-c]pyridin-1-yl)pyridin-2-amine], the IC50 in test [1] is > 50.1 nM; in test [2] it was 5.01 to 50.1 nM; in test [3] it was 5.01 to 50.1 nM; in test [4], 5.01 to 50.1 nM.

Regarding `CNS(=O)(=O)c1ccc(-n2nc(NCCCN(C)C)c3cnc(-c4cnn5cccnc45)cc32)c(OC)c1` [Example 52, 4-(3-((3-(dimethylamino)propyl)amino)-6-(pyrazolo[1,5-a]pyrimidin-3-yl)-1H-pyrazolo[4,3-c]pyridin-1-yl)-3-methoxy-N-methylbenzenesulfonamide], the IC50 in test [1] is 5.01 to 50.1 nM; in test [2], 5.01 to 50.1 nM; in test [3], ≤ 5.01 nM; in test [4], ≤ 5.01 nM.

As for `CNS(=O)(=O)c1ccc(-n2nc(C)c3cnc(-c4cnn5cccnc45)cc32)c(OC)c1` [Example 49, 3-methoxy-N-methyl-4-(3-methyl-6-(pyrazolo[1,5-a]pyrimidin-3-yl)-1H-pyrazolo[4,3-c]pyridin-1-yl)benzenesulfonamide], the IC50 in test [1] is > 50.1 nM; in test [2] it was 5.01 to 50.1 nM; in test [3], ≤ 5.01 nM; in test [4] it was ≤ 5.01 nM.

In the case of `COc1cc(NS(=O)(=O)C2CC2)ccc1-n1nc(NCCCN2CCOCC2)c2cnc(-c3cnn4cccnc34)cc21` [Example 33, N-(3-methoxy-4-(3-((3-morpholinopropyl)amino)-6-(pyrazolo[1,5-a]pyrimidin-3-yl)-1H-pyrazolo[4,3-c]pyridin-1-yl)phenyl)cyclopropanesulfonamide], the IC50 in test [1], in test [2], in test [3] and in test [4] was 5.01 to 50.1 nM throughout.

For the compound `COc1cc(NS(C)(=O)=O)ccc1-n1nc(N(C)CCN2CCOCC2)c2cnc(-c3cnn4cccnc34)cc21` [Example 40, N-(3-methoxy-4-(3-(methyl(2-morpholinoethyl)amino)-6-(pyrazolo[1,5-a]pyrimidin-3-yl)-1H-pyrazolo[4,3-c]pyridin-1-yl)phenyl)methanesulfonamide], the IC50 in test [1], in test [2], in test [3] and in test [4] was 5.01 to 50.1 nM in each case.

`CNc1nn(-c2ccc(NS(=O)(=O)C3CC3)cc2OC)c2cc(-c3cnn4cccnc34)ncc12` [Example 35, N-(3-methoxy-4-(3-(methylamino)-6-(pyrazolo[1,5-a]pyrimidin-3-yl)-1H-pyrazolo[4,3-c]pyridin-1-yl)phenyl)cyclopropanesulfonamide]: the IC50 was 5.01 to 50.1 nM in test [1], ≤ 5.01 nM in test [2], ≤ 5.01 nM in test [3] and 5.01 to 50.1 nM in test [4].

Take `COc1cc(NS(C)(=O)=O)ccc1-n1nc(C)c2cnc(-c3cnn4cccnc34)cc21` [Example 1, N-(3-methoxy-4-(3-methyl-6-(pyrazolo[1,5-a]pyrimidin-3-yl)-1H-pyrazolo[4,3-c]pyridin-1-yl)phenyl)methanesulfonamide]: the IC50 in test [1] is 5.01 to 50.1 nM; in test [2], ≤ 5.01 nM; in test [3], ≤ 5.01 nM; in test [4], ≤ 5.01 nM.

As for `COc1cc(NS(C)(=O)=O)ccc1-n1nc(NCCN2CCOCC2)c2cnc(Nc3ncc[nH]c3=O)cc21` [Example 87, N-(3-methoxy-4-(3-((2-morpholinoethyl)amino)-6-((3-oxo-3,4-dihydropyrazin-2-yl)amino)-1H-pyrazolo[4,3-c]pyridin-1-yl)phenyl)methanesulfonamide], the IC50 in test [1], in test [2], in test [3] and in test [4] was ≤ 5.01 nM in each case.

For `COc1cc(NS(C)(=O)=O)ccc1-n1nc(NCCN2CCOCC2)c2cnc(-c3cnn4cccnc34)cc21` [Example 24, N-(3-methoxy-4-(3-((2-morpholinoethyl)amino)-6-(pyrazolo[1,5-a]pyrimidin-3-yl)-1H-pyrazolo[4,3-c]pyridin-1-yl)phenyl)methanesulfonamide], the IC50 in test [1] was 5.01 to 50.1 nM; in test [2], ≤ 5.01 nM; in test [3] it was ≤ 5.01 nM; in test [4] it was ≤ 5.01 nM.

As for `COc1cc(NS(=O)(=O)C2CC2)cnc1-n1nc(NCCN(C)C)c2cnc(-c3cnn4cccnc34)cc21` [Example 29, N-(6-(3-((2-(dimethylamino)ethyl)amino)-6-(pyrazolo[1,5-a]pyrimidin-3-yl)-1H-pyrazolo[4,3-c]pyridin-1-yl)-5-methoxypyridin-3-yl)cyclopropanesulfonamide], the IC50 in test [1] is > 50.1 nM; in test [2] it was 5.01 to 50.1 nM; in test [3] it was 5.01 to 50.1 nM; in test [4], 5.01 to 50.1 nM.

With `COc1cc(NS(=O)(=O)C2CC2)ccc1-n1nc(N[C@H]2C[C@@H](N(C)C)C2)c2cnc(-c3cnn4cccnc34)cc21` [Example 78, N-(4-(3-(((1s,3s)-3-(dimethylamino)cyclobutyl)amino)-6-(pyrazolo[1,5-a]pyrimidin-3-yl)-1H-pyrazolo[4,3-c]pyridin-1-yl)-3-methoxyphenyl)cyclopropanesulfonamide], the IC50 is 5.01 to 50.1 nM in test [1], ≤ 5.01 nM in test [2], ≤ 5.01 nM in test [3] and ≤ 5.01 nM in test [4].

Regarding `COc1cc(NS(=O)(=O)C2CC2)ccc1-n1nc(CC#N)c2cnc(-c3cnn4cccnc34)cc21` [Example 84, N-(4-(3-(cyanomethyl)-6-(pyrazolo[1,5-a]pyrimidin-3-yl)-1H-pyrazolo[4,3-c]pyridin-1-yl)-3-methoxyphenyl)cyclopropanesulfonamide], the IC50 is 5.01 to 50.1 nM in test [1], ≤ 5.01 nM in test [2], ≤ 5.01 nM in test [3] and 5.01 to 50.1 nM in test [4].

For the compound `CCCS(=O)(=O)Nc1ccc(-n2nc(C(=O)NCCCN3CCOCC3)c3cnc(-c4cnn5cccnc45)cc32)c(OC)c1` [Example 47, 1-(2-methoxy-4-(propylsulfonamido)phenyl)-N-(3-morpholinopropyl)-6-(pyrazolo[1,5-a]pyrimidin-3-yl)-1H-pyrazolo[4,3-c]pyridine-3-carboxamide], the IC50 in test [1] was > 50.1 nM; in test [2], 5.01 to 50.1 nM; in test [3], 5.01 to 50.1 nM; in test [4], 5.01 to 50.1 nM.

Consider `COc1cc(C(=O)Nc2ccccc2)ccc1-n1nc(C)c2cnc(-c3cnn4cccnc34)cc21` [Example 20, 3-methoxy-4-(3-methyl-6-(pyrazolo[1,5-a]pyrimidin-3-yl)-1H-pyrazolo[4,3-c]pyridin-1-yl)-N-phenylbenzamide], for which the IC50 was > 50.1 nM in test [1], 5.01 to 50.1 nM in test [2], 5.01 to 50.1 nM in test [3] and 5.01 to 50.1 nM in test [4].

Consider `COc1cc(CNS(C)(=O)=O)ccc1-n1nc(NCCN(C)C)c2cnc(-c3cnn4cccnc34)cc21` [Example 56, N-(4-(3-((2-(dimethylamino)ethyl)amino)-6-(pyrazolo[1,5-a]pyrimidin-3-yl)-1H-pyrazolo[4,3-c]pyridin-1-yl)-3-methoxybenzyl)methanesulfonamide], for which the IC50 in test [1] is 5.01 to 50.1 nM; in test [2], ≤ 5.01 nM; in test [3], ≤ 5.01 nM; in test [4], ≤ 5.01 nM.
